Data as given in US20260102377A1, “COMPOSITIONS AND METHODS FOR TREATING MYASTHENIA GRAVIS” (priority 2022, published 2026).

Columns and labels:
[1] = tested on: EAMG rats; test: 14-day dosing in EAMG animals: rotarod test; assay type: in vivo, rat
Experimental: (§1) To induce EAMG, 250 μL of emulsion of Complete Freund's Adjuvant, consisting of heat-inactivated Mycobacterium tuberculosis H37Ra in non-metabolizable oils, together with Phosphate-Buffered Saline (PBS) and 80 μg of the extracellular α-domain peptide fragment of the human nicotinic acetylcholine receptor (antigen) was injected subcutaneously in seven-week-old, anaesthetized Lewis rats. The disease-inducing antigen was supplied by the Hellenic Pasteur institute3. The emulsion was deposited at the tail base, left hindleg, and right foreleg. After injection, animals were allowed to recover and returned to their home cage maintained in ventilated racks under controlled temperature (20 to 22° C.) and humidity (˜55%) control, under a 12-h light/12-h dark cycle with food and water provided ad libitum. The animals had pathogen free status and the housing and changing system was designed to assure that the pathogen free status was preserved during the study. The EAMG rats were observed, weighed, and scored for MG symptoms weekly until symptoms of MG developed, whereafter animals were observed daily.
(§2) Sixteen (16) rats with an EAMG clinical score of 2 were allocated to the study and stratified to one of the two treatment groups (vehicle vs NMD670, 8 rats per group). Stratification was based on rotarod endurance and grip strength performance with the aim to obtain similar average starting points for the two groups. Grip strength and Rotarod performance were measured prior to treatment (day 0) and on days 1, 4, 7, 9, 11 and 14 during treatment. The treatment was administered by per oral gavage. Dosing was twice daily with 20 mg/kg NMD670 or vehicle (sterile water) for 14 days unless the rat was subjected to premature termination due to reaching humane endpoints. The dose solutions for the treatment groups were blinded. Thus, experimenters and subsequent analysis were blinded as to which group received CIC-1 inhibitor and which group received vehicle. Full analysis of data and statistics were concluded before unblinding the data. Plasma samples were obtained on days 0, 1 and 14, with muscle samples obtained on day 14 at termination.
Rotarod test was conducted on a Touchscreen Rotarod from Panlab (Model LE8305, Harward Apparatus). For testing the running performance, the rat was placed in one of 4 running lanes on the rotating rod that rats were challenged to run on. Prior to the first test on the rotarod on Day 0, the rat was allowed a 1-minute run at 4 rotations per minute (RPM), to familiarize with the apparatus. The rat was then allowed at least 5 minutes of rest before the test was conducted. To test the running performance, the rat was challenged with a protocol consisting of constantly accelerating speed from 4 to 40 RPM over 420 seconds. Test occasions consisted of 3 runs with at least 5 and no more than 15 minutes of rest between each run. Performance was quantified by the duration that the rat was able to remain on the rotating rod. Average values of the 3 runs per test occasion were used for further data processing.

[2] = tested on: EAMG rats; test: 14-day dosing in EAMG animals: grip strength; assay type: in vivo, rat
Experimental: as §1, §2
Grip strength was measured on a BIOSEB BIO-GT3 Grip strength meter (force transducer, S/N 180271). The rat was handled to allow all four paws to grab the mesh on the grip meter and the rat was then pulled 5 times by the base of the tail in the opposite direction of its body orientation, i.e. towards the operator and away from the grip meter. Care was taken to ensure that the force recorded reflected the grip strength of the rat and not the force of the pulls conducted by the operator. There was minimal pause between the 5 repeated pulls with recordings being separated only by the time of handling the rat (few seconds). Measurements were considered invalid if the rat let go with one or more limbs before the pull was initiated. Average values of the 5 pulls per test occasion were used for further data processing.

[3] = tested on: patients with MG; test: Phase 1 FIH study: safety in patients with MG; assay type: in vivo, human
Experimental: 12 patients were enrolled and completed the study. For each subject, the study consisted of three study periods during which subjects received either a single dose of NMD670 400 mg, NMD670 1200 mg, or placebo with a 7-day washout period between visits. On these study visits, subjects were asked to refrain from their regular dose of pyridostigmine (if applicable) from 14 h before dosing until after the last pharmacodynamic measurement on Day 1 (see Table 13: Visit and Assessment Schedule). The cross-over design allowed intra-individual comparison of drug effects versus placebo (see FIG. 16). A balanced design was applied to control for first-order carry-over effects.
Part C was a double-blinded, placebo-controlled, three-way cross-over comparison of two single oral doses of NMD670 in men and women with stable symptomatic myasthenia gravis. 12 patients were enrolled. For each subject, the study consisted of three study periods during which subjects received either a single dose of NMD670 or placebo. On these study visits, subjects were asked to refrain from their regular dose of pyridostigmine (if applicable) for 14 hours before dosing. Single doses were administered in randomized order (400 mg free acid, 1200 mg free acid, or placebo p.o.), with a 7-day washout period between visits (FIG. 16). NMD670/placebo was administered with 240 ml of still water.

[4] = 14-day chronic dosing, 20 mg/kg twice daily

C[C@H](Oc1ccc(Br)cc1-c1ccon1)C(=O)O [NMD670, (2S)-2-[4-bromo-2-(1,2-oxazol-3-yl)phenoxy]propanoic acid]
Endurance on rotarod over vehicle group throughout the period of treatment [1, 4]: higher endurance on rotarod | Rotarod performance (latency to fall in seconds) ([1]; day 0 (prior to treatment), 20 mg/kg twice daily per oral, P = 0.9478 vs vehicle): 28.5 ± 7.3 s | Rotarod performance (latency to fall in seconds) ([1]; day 1, 20 mg/kg twice daily per oral, P > 0.9999 vs vehicle): 38.4 ± 8.7 s | Rotarod performance (latency to fall in seconds) ([1]; day 4, 20 mg/kg twice daily per oral, P = 0.4613 vs vehicle): 37.8 ± 10.1 s | Rotarod performance (latency to fall in seconds) ([1]; day 7, 20 mg/kg twice daily per oral, P = 0.7852 vs vehicle): 29.1 ± 8.8 s | Rotarod performance (latency to fall in seconds) ([1]; day 9, 20 mg/kg twice daily per oral, P = 0.6753 vs vehicle): 27.5 ± 9.1 s | Rotarod performance (latency to fall in seconds) ([1]; day 11, 20 mg/kg twice daily per oral, P = 0.0335 vs vehicle): 35.5 ± 12.6 s | Rotarod performance (latency to fall in seconds) ([1]; day 14, 20 mg/kg twice daily per oral, P = 0.8122 vs vehicle): 19.0 ± 5.7 s | Grip strength over vehicle group throughout the period of treatment [2, 4]: increased grip strength | Grip strength relative to bodyweight ([2]; day 0 (prior to treatment), 20 mg/kg twice daily per oral, P > 0.9999 vs vehicle): 4.8 ± 0.17 | Grip strength relative to bodyweight ([2]; day 1, 20 mg/kg twice daily per oral, P = 0.1225 vs vehicle): 5.5 ± 0.46 | Grip strength relative to bodyweight ([2]; day 4, 20 mg/kg twice daily per oral, P = 0.0629 vs vehicle): 5.4 ± .038 | Grip strength relative to bodyweight ([2]; day 7, 20 mg/kg twice daily per oral, P = 0.7266 vs vehicle): 4.9 ± 0.26 | Grip strength relative to bodyweight ([2]; day 9, 20 mg/kg twice daily per oral, P = 0.2100 vs vehicle): 5.0 ± 0.27 | Grip strength relative to bodyweight ([2]; day 11, 20 mg/kg twice daily per oral, P = 0.0206 vs vehicle): 5.4 ± 0.41 | Grip strength relative to bodyweight ([2]; day 14, 20 mg/kg twice daily per oral, P = 0.1010 vs vehicle): 5.1 ± 0.47 | Treatment-related adverse effects in MG patients ([3]; 1200 mg doses): no treatment-related adverse effects | Myotonia in patients with MG ([3]; single doses up to 1200 mg): not observed
